Measured values taken from publication PMC8880783, “Structure and electron transfer pathways of an electron-bifurcating NiFe-hydrogenase” (Science Advances, 2022).

Tests used:
[1] = molecular target: A. mobile NiFe-HydABCSL hydrogenase (heteropentamer) (A. mobile (endogenous in A. mobile cells)); assay: SEC; HiLoad Superdex 200 prepgrade XK 16/60, 25 mM tris pH 8.0, 300 mM NaCl, 5% glycerol, 2.5% trehalose, anaerobic; decamer to pentamers
[2] = molecular target: A. mobile NiFe-HydABCSL hydrogenase (heteropentamer) (A. mobile (endogenous in A. mobile cells)); assay: cryo-EM structure; single-particle cryo-EM of the enzyme as purified, flavin-free apo state, C2 symmetry, 3.2 Å
[3] = molecular target: T1, NiFe-HydABCSL (Acetomicrobium mobile, UniProt I4BYB5); assay: H2-dependent bifurcation assay, Fd reduction at […] nm; type: biochemical; conditions: 100% H2, 40 µM A. mobile Fd, 1 mM NAD, enzyme retains about 0.35 FMN per mole
T1 construct: gene Anamo_1678; native purification from A. mobile, untagged; dimer of heteropentamers (~500 kDa by SEC; 233 kDa per pentamer); with Electron-bifurcating NiFe-hydrogenase subunit HydA; Electron-bifurcating NiFe-hydrogenase subunit HydC (NADH:ubiquinone oxidoreductase 24 kD subunit); NiFe-hydrogenase small subunit HydS; NiFe-hydrogenase large subunit HydL

[4] = molecular target: T1, NiFe-HydABCSL; assay: H2-dependent bifurcation assay, simultaneous Fd and NAD reduction; type: biochemical; conditions: 100% H2, 40 µM A. mobile Fd, 10 µM FMN, 1 mM NAD
[5] = molecular target: T1, NiFe-HydABCSL; assay: cryo-EM structure of complex, […] Å; type: binding; conditions: 100 µM FMN with 100 µM NADH and 10 µM A. mobile Fd; site in HydB Rossmann fold, next to B1 [4Fe-4S] cluster; stacked on FMN in HydB; modelled as NAD(H)

Question: What does the source list for “A. mobile NiFe-HydABCSL hydrogenase (heteropentamer) (complex)”?
Answer: stoichiometry N [1]: 2; stoichiometry N [2]: 2

Question: `Cc1cc2nc3c(=O)[nH]c(=O)nc-3n(C[C@H](O)[C@H](O)[C@H](O)COP(=O)(O)O)c2cc1C` [FMN] was tested. Which “% stimulation” value ([3]; 10 µM FMN) did it give?
Answer: ~ 35%

Question: For `NC(=O)c1ccc[n+]([C@@H]2O[C@H](COP(=O)(O)OP(=O)(O)OC[C@H]3O[C@@H](n4cnc5c(N)ncnc54)[C@H](O)[C@@H]3O)[C@@H](O)[C@H]2O)c1` [NAD], which turnover [4] is on record?
Answer: NiFe-HydABCSL reduced the Fd only if NAD was also added

Question: With `Cc1cc2nc3c(=O)[nH]c(=O)nc-3n(C[C@H](O)[C@H](O)[C@H](O)COP(=O)(O)OP(=O)(O)OC[C@H]3O[C@@H](n4cnc5c(N)ncnc54)[C@H](O)[C@@H]3O)c2cc1C` [FAD] as the molecule, how does the “% stimulation” value ([3]; FAD concentration not given) read?
Answer: ~ 10%

Question: With `NC(=O)C1=CN([C@@H]2O[C@H](COP(=O)(O)OP(=O)(O)OC[C@H]3O[C@@H](n4cnc5c(N)ncnc54)[C@H](O)[C@@H]3O)[C@@H](O)[C@H]2O)C=CC1` [NADH] as the molecule, how does the structure [5] read?
Answer: FMN and NADH had well-defined densities in HydB
